# Experimental data taken from patent US20100215620A1, “THE CO-CULTURE METHOD OF SPHINGOMONAS SP. BACTERIAL STRAIN AND ASPERGILLUS SP. FUNGUS STRAIN, NEW ANTI-CANCER AND ANTIBIOTIC GLIONITRINS DERIVED FROM THIS CO-CULTURE METHOD, AND PHARMACEUTICAL COMPOSITION CONTAINING GLIONITRINS OR PHARMACEUTICALLY ACCEPTABLE SALT THEREOF AS AN ACTIVE INGREDIENT” (KOREA INSTITUTE OF SCIENCE AND TECHNOLOGY, priority 2007, published 2010).
# Where two headings read alike, the source gives them in different places.
# Tests used:
# [1] = test system: Aspergillus fumigatus HIC 6094; test: Antifungal MIC, Sabouraud glucose liquid medium; assay type: cell-based
# Description: (§1) The present inventors also evaluated antifungal activity of glionitrins A and B against those strains distributed from American Type Culture Collection (ATCC, Manassas, Va., USA) such as Aspergillus fumigatus HIC 6094 and Trichophyton rubrum IFO 9185. […] To determine MIC of glionitrin for those two fungus strains, spores of the fungus strains were suspended in sterilized distilled water at the density of 10^5 spores/mL and the density was adjusted by using Sabouraud glucose liquid medium (Difco) to 10^3 cells/mL. Then, the cells were distributed in a 96-well plate at the density of 10^2 cells/100 μl/well, to which glionitrin was added at different concentrations, followed by culture at 28° C. for […]. The concentration of glionitrin at which no fungi growth was confirmed was determined as MIC.
# [2] = test system: Trichophyton rubrum IFO 9185; test: Antifungal MIC, Sabouraud glucose liquid medium; assay type: cell-based
# Description: as §1
# [3] = test system: Micrococus leuteus IFC 12708[G(+)]; test: Antibacterial MIC, broth dilution, OD600; assay type: cell-based, Micrococcus leuteus; details: Micrococcus
# Description: (§2) The present inventors also investigated antibacterial effect of glionitrin A and glionitrin B using Micrococcus leuteus IFC 12708, Bacillus subtilis ATCC 6633, Proteus vulgaris ATCC 3851, Salmonella typhimurium ATCC 1 4028 and 3 MRSA strains, Staphylococcus aureus ATCC 43300, S. aureus ATCC 700787 and S. aureus ATCC 700788 distributed from American Type Culture Collection (ATCC, Manassas, Va., USA). […] Then, the medium was eliminated and 100 μl of medium containing 10^5 cfu/mL of each strain was loaded in each well of a 96-well plate. Glionitrin diluted at different concentrations was added thereto, followed by culture at 37° C. for 24 hours. 24 hours later, OD600 was measured.
# [4] = test system: Staphylococcu aureus ATCC 4330(MRSA); test: Antibacterial MIC, broth dilution, OD600; assay type: cell-based; details: Staphylococcus aureus, 24 h
# Description: as §2
# [5] = test system: S. aureus ATCC 700787(MRSA); test: Antibacterial MIC, broth dilution, OD600; assay type: cell-based; details: Staphylococcus aureus, 24 h
# Description: as §2
# [6] = test system: Proteus vulgaris ATCC 3851[G(−)]; test: Antibacterial MIC, broth dilution, OD600; assay type: cell-based
# Description: as §2
# [7] = test system: Bacillus subtilis ATCC 6633 [G(+)]; test: Antibacterial MIC, broth dilution, OD600; assay type: cell-based
# Description: as §2
# [8] = test system: Salmonella typhimurium ATCC 14028[G(−)]; test: Antibacterial MIC, broth dilution, OD600; assay type: cell-based; details: Salmonella enterica
# Description: as §2
# [9] = test system: S. aureus ATCC 700788(MRSA); test: Antibacterial MIC, broth dilution, OD600; assay type: cell-based; details: Staphylococcus aureus
# Description: as §2
# [10] = test system: 4 non-resistant strains; test: Antibacterial MIC; assay type: cell-based
# Description: as §2
# [11] = Stability of glionitrin A in solution at room temperature; assay type: physicochemical; details: water, acetonitrile aqueous solution, methanol aqueous solution or DMSO
# Description: The chemical structures of the separated compounds were identified by using MS and nuclear spectrometer. As a result, it was confirmed that glionitrin A was amorphous light yellow powder represented by the molecular formula of C13H11N3O5S2 which had the molecular weight of 353, and glionitrin B was colorless mucous semi-solid material represented by the molecular formula of C15H17N3O5S2 which had the molecular weight of 383.
# The present inventors performed instrumental analysis with glionitrins to determine the chemical formulas of glionitrin A and glionitrin B. The separated glionitrin A was left in water or DMAO at room temperature. […] Glionitrin A was measured in chloroform-d solvent and glionitrin B was measured in methanol-d4 solvent.
# [12] = test system: 3 MRSA strains; test: Antibacterial MIC; assay type: cell-based, Staphylococcus aureus; details: against 3 MRSA strains
# Description: as §2
# [13] = test system: AGS (stomach cancer, ATCC CRL-1739); test: In vitro MTT cytotoxicity assay; assay type: cell-based; details: 24 h
# Description: (§3) The present inventors investigated cytotoxic effect of glionitrin on cancer cells with in vitro MTT (3-[4,5-dimethylthiazol-2-yl]-2,5-diphenyltrazdium bromide) assay to quantify live cancer cells. Cancer cell cytotoxicity of glionitrin was evaluated using AGS (stomach cancer, ATCC CRL-1739™), HepG2 (liver cancer, HB-8065™), HCT116 (colon cancer, CCL-247™), A549 (lung cancer, CCL-185™) and DU145 (prostatic cancer, HTB-81™) distributed from American Type Culture Collection (ATCC, Manassas, Va., USA). Stomach cancer (AGS), liver cancer (HepG2), colon cancer (HCT-116), lung cancer (A549) or prostatic cancer (DU-145) cells were distributed in a 96-well plate at the density of 1×10^4 cells/100 μl/well, followed by culture in a 37° C., CO2 incubator for 24 hours. Then, the medium was replaced with a fresh one containing glionitrin, followed by culture at 37° C. 24 hours later, MTT solution was added thereto by 10 μl/well, followed by further culture for 1 hour at 37° C. One hour later, formazane generated by reductase in live cells was quantified by measuring OD450.
# [14] = test system: HCT-116 (colon cancer, CCL-247); test: In vitro MTT cytotoxicity assay; assay type: cell-based; details: Homo sapiens, HCT-116, 24 h
# Description: as §3
# [15] = test system: DU-145 (prostatic cancer, HTB-81); test: In vitro MTT cytotoxicity assay; assay type: cell-based; details: Homo sapiens, DU-145, 24 h
# Description: as §3
# [16] = test system: A549 (lung cancer, CCL-185); test: In vitro MTT cytotoxicity assay; assay type: cell-based; details: Homo sapiens, A549, 24 h
# Description: as §3
# [17] = test system: HepG2 (liver cancer, HB-8065); test: In vitro MTT cytotoxicity assay; assay type: cell-based; details: Homo sapiens, HepG2, 24 h
# Description: as §3
# [18] = test system: Aspergillus fumigatus HIC 6094 and Trichophyton rubrum IFO 9185; test: Antifungal MIC; assay type: cell-based
# Description: as §1
# [19] = test system: MCF-7; test: In vitro MTT cytotoxicity assay; assay type: cell-based; details: Homo sapiens, MCF7
# [20] = test system: 7 bacterial strains; test: Antibacterial activity, text summary for the 7 bacterial strains; assay type: cell-based; details: every experimental group (7 bacterial strains)
# Description: as §2
# [21] = Micrococus leuteus IFC 12708, 37° C., 24 hours, read-out: MIC
# [22] = ATCC3851, Proteus vulgaris ATCC 3851, 37° C., 24 hours, read-out: MIC
# [23] = ATCC6633, Bacillus subtilis ATCC 6633, 37° C., 24 hours, read-out: MIC
# [24] = Salmonella typhimurium ATCC 14028, 37° C., 24 hours, read-out: MIC
compound,measurement,setting,value
"C[C@@H]1[C@H](O)[C@@H](C)/C=C/C=C/C=C/C=C/C=C/C=C/C=C/[C@H](O[C@@H]2O[C@H](C)[C@@H](O)[C@H](N)[C@@H]2O)C[C@@H]2O[C@](O)(C[C@@H](O)C[C@@H](O)[C@H](O)CC[C@@H](O)C[C@@H](O)CC(=O)O[C@H]1C)C[C@H](O)[C@H]2C(=O)O [amphotericin B, reference compound]",MIC,"[1]; Aspergillus fumigatus HIC 6094, 28° C.",1.56 µg/mL
same,MIC,"[2]; Trichophyton rubrum IFO 9185, 28° C.",1.56 µg/mL
"CC1(C)S[C@@H]2[C@H](NC(=O)[C@H](N)c3ccccc3)C(=O)N2[C@H]1C(=O)O [ampicillin, reference compound]",MIC,[3]; [21],0.78 µg/mL
same,MIC,[4],12.5 µg/mL
same,MIC,[5],12.5 µg/mL
same,MIC,[6]; [22],1.56 µg/mL
same,MIC,[7]; [23],3.13 µg/mL
same,MIC,[8]; [24],12.5 µg/mL
same,MIC,"[9]; S. aureus ATCC 700788 (MRSA), 37° C., 24 hours, read-out: MIC",25 µg/mL
CN1C(=O)C23Cc4ccc([N+](=O)[O-])cc4N2C(=O)C1(CO)SS3 (stereo not shown) [glionitrin A],MIC,[3]; 24 h,0.78 µg/mL
same,MIC,[10],0.78 to 3.13 µg/mL
same,MIC,[4],0.78 µg/mL
same,MIC,[5],0.78 µg/mL
same,MIC,"[6]; Proteus vulgaris, ATCC3851, 24 h",3.13 µg/mL
same,MIC,"[7]; Bacillus subtilis, ATCC6633, 24 h",6.25 µg/mL
same,MIC,[8]; 24 h,3.13 µg/mL
same,MIC,[9]; 24 h,0.78 µg/mL
same,MIC,"[1]; Aspergillus fumigatus, HIC6094",12.5 µg/mL
same,MIC,"[2]; Trichophyton rubrum, IFO9185",12.5 µg/mL
same,stability in solution,[11],trisulfide (glionitrin C) and tetrasulfide (glionitrin D) were generated
same,MIC,[12]; Staphylococcus aureus,0.78 µg/mL
same,antibacterial activity relative to ampicillin,[12]; versus positive control ampicillin,15 times
same,IC50,[13],450 ± 110 nM
same,IC50,[14],820 ± 110 nM
same,IC50,[15],240 ± 20 nM
same,IC50,[16],550 ± 70 nM
same,IC50,[17],2280 ± 300 nM
same,MIC,[18]; read-out: MIC (antifungal activity),12.5 µg/mL
same,IC50,[19],> 2000 nM
CSC1(CO)C(=O)N2c3cc([N+](=O)[O-])ccc3CC2(SC)C(=O)N1C (stereo not shown) [glionitrin B],MIC,[3]; [21],> 100 µg/mL
same,MIC,[4],> 50 µg/mL
same,MIC,[5],> 50 µg/mL
same,MIC,[6]; [22],> 50 µg/mL
same,MIC,[7]; [23],> 100 µg/mL
same,MIC,[8]; [24],> 50 µg/mL
same,MIC,[9]; 24 h,> 50 µg/mL
same,MIC,"[1]; HIC6094, Aspergillus fumigatus HIC 6094, 28° C., read-out: MIC",> 50 µg/mL
same,MIC,"[2]; IFO9185, Trichophyton rubrum IFO 9185, 28° C., read-out: MIC",> 50 µg/mL
same,antibacterial activity,[20],no antibacterial activity at all
same,IC50,"[13]; AGS, MTT, read-out: IC50",1250 ± 200 nM
same,IC50,"[14]; MTT, read-out: IC50",3280 ± 550 nM
same,IC50,"[15]; MTT, read-out: IC50",2290 ± 140 nM
same,IC50,"[16]; MTT, read-out: IC50",2250 ± 250 nM
same,IC50,"[17]; MTT, read-out: IC50",> 2000 nM
same,antifungal activity,[18]; Aspergillus fumigatus HIC 6094 and Trichophyton rubrum IFO 9185,did not show antifungal activity
same,IC50,"[19]; MCF-7, MTT, read-out: IC50",> 2000 nM
